“Also recorded” adds a separate entry of the source.
How the values were obtained:
TgA53T mice [1] = test: Tolerated dose, dose escalation study; assay type: in vivo
Description: Pegasus synthesis and the D5 control derivative of tetracycline were previously described. Pegasus is a 652.2 Da small molecule that consists of one DA conjugated to tetracycline via a molecular linker (Figure 1A). […] We determined a tolerated dose of Pegasus in young (6–7 months old) and old (11–12 months old) TgA53T mice (IP, once daily) treated with an ascending dose of Pegasus of 10 mg/kg, 50 mg/kg, and 75 mg/kg for 4 consecutive days (Figure 1B). Pegasus was tolerated up to 75 mg/kg without visible adverse effects. […] We then reduced the dose to 75 mg/kg for another week.
(§1) Tissue toxicity was assessed in young (6–7-month-old) and old (12–13-month-old) A53T mice. The mice received daily i.p. escalating doses of Pegasus or control D5 (tetracycline derivative with no DA) vs. DMSO of 10, 25, 50, and 100 mg/kg for 4 days with each dose up to 16 days, and tissues were analyzed via caspase-3 activity. The caspase-3 activity assay (EnzChek® Invitrogen, Waltham, MA, USA) was conducted according to manufacturer’s protocols as we previously described.

human alpha-synuclein [2] = test: Human alpha-synuclein ELISA of brain lysates; assay type: in vivo, mouse; settings: brain lysates of old (11–12-month-old) TgA53T mice, vs DMSO
Description: (§2) The concentration of CNS alpha-synuclein via ELISA was reduced in the brain lysates of old (11–12-month-old) TgA53T mice treated with Pegasus compared to DMSO-treated controls (Figure 5I).
The levels of DA and its metabolite HVA were measured using a commercially available ELISA (Cat No. MBS269234 and Cat# MBS1601074, MyBiosource, San Diego, CA, USA) on serum and brain tissue soluble extracts. Human alpha-synuclein was measured via a human-specific ELISA (Cat# 448607, BioLegend, San Diego, CA, USA) according to the manufacturer’s protocol.

TgA53T mice [3] = test: Elevated plus maze test in TgA53T mice; assay type: in vivo, mouse; settings: 50 mg/kg i.p., vs DMSO
[4] = In vivo metabolism, metabolite profiling in rat brain and plasma (LC-MS/MS)
Description: In vivo metabolism: We performed a metabolism study (Figure 2) in male Sprague Dawley rats (6–8 weeks old) after a single i.p. injection of 50 mg/kg Pegasus. Plasma and brain samples were serially collected and assessed for the presence of possible phase-I and phase-II metabolites. […] The relative abundance of Pegasus and its metabolites in the brain and plasma was determined at the ionization parameters of the parent.
Metabolite profiling was performed in rat brain and plasma samples to detect phase-I and phase-II metabolites in male Sprague Dawley rats (6–8 weeks old, n = 6) injected (i.p.) with 50 mg/kg Pegasus. The formulation vehicle of Pegasus was 5% DMSO + 35% polyethylene glycol (PEG) 400 + 60% normal saline, and this formulation was used to measure the plasma and brain concentrations of Pegasus and all other metabolites. All samples obtained after Pegasus dosing in rats by the i.p. route of administration were used for metabolite profiling and compared to normal saline. Blood (n = 16 samples) was collected via retro-orbital plexus puncture 0.25, 1, 4, 6, 8, and 24 h pre-dose, and brain sampling was 1, 4, and 24 h post-dose (n = 6 per group). The brain samples were cleaned and perfused, then washed with PBS. The brains (approximately 1.5 g) were transferred to a 50 mL centrifuge tube and 36 mL of ice-cold PBS was added. The mixture was homogenized for about 1–2 min to obtain a uniform suspension. The precipitate was allowed to settle for 30 min at 4 °C, and 15 mL of the middle layer was collected. The plasma and brain samples were processed by the protein precipitation method. In total, 175 μL of acetonitrile was added to 25 μL of plasma samples. The samples were mixed, followed by centrifugation at 4000 rpm for 20 min. The supernatant from the samples was subjected to LC-MS/MS analysis.
The samples were analyzed by liquid chromatography tandem mass spectrometry (HPLC: LC series, Shimadzu, Chiyoda-ku, Tokyo, Japan; mass spectrometer: API4000 Triple Quad mass spectrometer, Applied Biosystems, Carlsbad, CA, USA). The samples (n = 6) were processed using protein precipitation and 1 mM stock solution, prepared in DMSO, spiked into acetonitrile to a final concentration of 4 µM, and processed using liquid chromatography tandem mass spectrometry, employing a linear gradient method using MH+/MH−(Q1) and product ion (MS/MS) scans. The evaluation of the Pegasus metabolites included demethylation, de-hydroxylation, amide cleavage, oxidation, de-hydrogenation, glucuronidation, sulfation, glutathione conjugation, and several other possibilities. The relative abundance of Pegasus and its metabolites in the brain and plasma was determined at the ionization parameters of the parent.

[5] = system: tyrosine hydroxylase (TH+)-positive neurons; test: Tyrosine hydroxylase immunohistochemistry (DAB staining); assay type: in vivo, mouse; settings: vs DMSO
Description: To further examine whether Pegasus has any effects on DA-producing neurons, we performed immunohistochemistry to visualize tyrosine hydroxylase (TH+)-positive neurons in both the SN and striatum in Pegasus-treated versus untreated mice. TH is a rate-limiting enzyme in the biosynthesis of DA in the brain. We used DAB staining to highlight the TH+ neurons.
(§3) Animals were deeply anesthetized with a mixture of Xylazine and Ketamine (8:80 mg/kg), washed with normal saline for 1 min, and then perfused with 4% paraformaldehyde (PFA) for 15 min. The brains were dissected out and immediately stored in 4% PFA for 24 h at 4 °C, and then transferred to 30% sucrose at 4 °C for 48 h. The brains were cut using a cryostat microtome into 20 µm thick coronal sections and stored at −20 °C. Staining for tyrosine hydroxylase (TH) was probed with anti-tyrosine hydroxylase antibody (Cat No: AB152, Sigma-Aldrich, St. Louis, MO, USA). GFAP (glial fibrillary acidic protein) was stained with anti-GFAP monoclonal antibody (Cat No:MS1376P1, Fisher Scientific, Newington, NH, USA). […] TH^+ cells were counted in a stereology-like manner across multiple visual fields (typically 20 fields) in a single animal, and the same procedure was repeated on several animals to obtain the best approximation of TH staining.

astrocyte (GFAP) = test: GFAP immunohistochemistry of astrocytes; assay type: in vivo, mouse
Description: (§4) Neuroinflammation is one of the most important pathogeneses in PD in addition to alpha-synuclein aggregation. To examine the effects of Pegasus on glial cell activation, we performed immunohistochemistry of astrocyte and microglia from the brains of treated vs. untreated young (6–7-month-old) and old (12–13-month-old) TgA53T mice.
as §3

caspase-3 activity = test: Tissue toxicity via caspase-3 activity assay; assay type: in vivo; settings: liver, brain, kidney, lung, spleen, heart, serum, small intestine; young TgA53T mice; vs naïve, DMSO and D5
Description: We further verified cell death via caspase-3 activity assays of the liver, brain, kidney, lung, spleen, heart, serum, and small intestine in young TgA53T mice (6–7 months old).
as §1

human alpha-synuclein [6] = test: Western blot of soluble brain extracts for alpha-synuclein; assay type: in vivo, mouse; settings: young TgA53T mice (6–7 months old), vs D5 and DMSO
Description: as §2
To extract the soluble proteins, whole brain tissues, which excluded the olfactory bulb, cerebellum, and spinal cord, were isolated and homogenized in 1 × STEN buffer (50 mM Tris (pH 7.6), 150 mM NaCl, 2 mM EDTA, 0.2% NP-40, 0.2% BSA, 20 mM PMSF, and protease cocktail inhibitor). The proteins were quantified and normalized for WB (and ELISA) on 4–12% Criterion™ XT Bis-Tris Protein Gel (Cat No: 3450125, Bio-rad, Hercules, CA, USA). Beta-actin (β-actin) was probed (1:3000) with monoclonal antibody (Cat No: MAB1501R, Emdmillipore, Danvers, MA, USA). Human alpha-synuclein was probed (1:4000) with monoclonal antibody (Cat No: AHB0261, Thermo Fisher, Waltham, MA, USA). Human oligomeric alpha-synuclein was probed (1:500) with anti-alpha-synuclein oligomer-specific syn33 antibody (Cat No: ABN2265, Sigma-Aldrich, St. Louis, MO, USA). WBs were quantified by densitometry using Quantity One 4.6.3 software (Bio Rad, Hercules, CA, USA) and Image J version 1.54m.

alpha-synuclein = system: alpha-synuclein; design: method as in PMID 38991155; settings: cited from earlier work
microglia (IBA1) = test: IBA1 immunohistochemistry of microglia; assay type: in vivo, mouse; settings: young and old TgA53T mice, vs DMSO
Text: as §4

[7] = 50 mg/kg Pegasus i.p., Sprague Dawley rats

C[C@H]1c2ccc(NC(=O)CCC(=O)NCCc3ccc(O)c(O)c3)c(O)c2C(=O)C2=C(O)[C@]3(O)C(=O)C(C(N)=O)=C(O)CC3[C@@H](O)C21 (stereo partly drawn) [Pegasus]
Visible side effects at 50 mg/kg (TgA53T mice [1]; 50 mg/kg, mice): no visible side effects
Adverse effects at 100 mg/kg (TgA53T mice [1]; 100 mg/kg, male and female 12–13 months old mice): some scruffiness and weakness at Day16, and one mouse showed gut toxicity at autopsy
Tolerated dose (TgA53T mice [1]; TgA53T, mouse, in vivo, ip, 4 days per dose level): up to 75 mg/kg
Adverse effects at autopsy after dose reduction (TgA53T mice [1]; dose reduced to 75 mg/kg for another week): no adverse effects were detected
Concentration of CNS alpha-synuclein (ELISA) (human alpha-synuclein [2]): reduced
Elevated plus maze total distance traveled (TgA53T mice [3]): significantly decreased
Elevated plus maze total number of entries to arms (TgA53T mice [3]): significantly decreased
Percentage of entries to open arms (TgA53T mice [3]): increased
Percentage of time spent in open arms (TgA53T mice [3]): increased
Observed in Rat Brain [4, 7]: not detected
Observed in Rat Plasma [4, 7]: very small
Kp ([4]; male, Sprague Dawley, intraperitoneal, 50 mg/kg, relative abundance brain vs plasma, rat): 0
Cell count of TH+ neurons in the SN ([5]; young (6–7-month-old) and old (12–13-month-old) TgA53T mice): dramatically increases the cell count
DA nerve terminals (TH+) in the striatum ([5]; young and old TgA53T mice): dramatically increases
GFAP staining in other brain regions (astrocyte (GFAP); including the SN and cortex): not appreciably different
GFAP astrocyte reactivity in the hippocampus (astrocyte (GFAP); young (6–7-month-old) TgA53T mice, 50 mg/kg i.p., vs DMSO): significant reduction in astrocyte reactivity
Caspase-3 activity in tissues (caspase-3 activity): no apparent toxicity in organs; also recorded: no significant changes in caspase-3 activity
Monomeric alpha-synuclein level (WB) (human alpha-synuclein [6]): significant decreases
Oligomeric alpha-synuclein level (WB) (human alpha-synuclein [6]): significant decreases
Protective effect on alpha-synuclein in vitro (alpha-synuclein): prevention of alpha-synuclein misfolding
IBA1 staining in the hippocampus (microglia (IBA1)): No differences in IBA1 staining

— article PMC12072186, “A Novel Small Molecule Enhances Stable Dopamine Delivery to the Brain in Models of Parkinson’s Disease” (International Journal of Molecular Sciences, 2025)
